# pIC50: −log10 of the molar value.
# Tests used:
# [1] = test system: Mycobacterium tuberculosis; test: Antitubercular activity against Mycobacterium tuberculosis H37Ra ATCC 25177 harboring lux gene measured after 7 days by luminometric method; type: functional, organism-based; conditions: H37Ra ATCC 25177, 168 h
# [2] = Selectivity index, ratio of CC50 for human MRC5 cells to IC50 for Mycobacterium tuberculosis H37Ra ATCC 25177 harboring lux gene; type: toxicity; conditions: read-out: Ratio CC50/IC50
Compound,pIC50 [1],selectivity ratio [2]
CCOC(=O)[C@H](CC(C)C)NP(=O)(CCCC(=O)N(C)OCCCc1ccccc1)N[C@@H](CC(C)C)C(=O)OCC,< 4.19,
CCOC(=O)[C@H](CC(C)C)NP(=O)(CCCC(=O)N(C)O)N[C@@H](CC(C)C)C(=O)OCC,4.53,> 2.2
CCOC(=O)[C@H](CC(C)C)NP(=O)(CCCC(=O)N(C)OCc1ccc(C(C)C)cc1)N[C@@H](CC(C)C)C(=O)OCC,4.31,0.15
CCOC(=O)[C@H](CC(C)C)NP(=O)(CCCC(=O)N(C)OCc1ccc(Cl)cc1)N[C@@H](CC(C)C)C(=O)OCC,4.31,0.37
NNC(=O)c1ccncc1 [ISONIAZID],6.68,
CCOC(=O)[C@H](CC(C)C)NP(=O)(CCCC(=O)N(C)OCc1ccccc1)N[C@@H](CC(C)C)C(=O)OCC,< 4.19,
CCOC(=O)[C@H](CC(C)C)NP(=O)(CCCC(=O)N(C)OCCCCc1ccccc1)N[C@@H](CC(C)C)C(=O)OCC,4.30,0.14
CCOC(=O)[C@H](CC(C)C)NP(=O)(CCCC(=O)N(C)OCc1ccc2ccccc2c1)N[C@@H](CC(C)C)C(=O)OCC,4.32,0.11
CCOC(=O)[C@H](CC(C)C)NP(=O)(CCCC(=O)N(C)OCc1ccc(-c2ccccc2)cc1)N[C@@H](CC(C)C)C(=O)OCC,4.45,0.17
